This note sets out measurements from patent publication US8343959B2, “N-phenyl-(piperazinyl or homopiperazinyl)-benzenesulfonamide or benzenesulfonyl-phenyl-(piperazine or homopiperazine) compounds suitable for treating disorders that respond to modulation of the serotonin 5-HT6 receptor” (Abbott GmbH & Co. KG, priority 2009, dated 2013).

Where a name gives a salt, the structure may show the parent alone. A value given as a limit tells only on which side of the number the result lay.

In one test the target is T1, h-5-HT6 receptor (Homo sapiens, UniProt P50406).
T1 construct: expressed in transfected cells
T1 sequence (P50406 whole entry): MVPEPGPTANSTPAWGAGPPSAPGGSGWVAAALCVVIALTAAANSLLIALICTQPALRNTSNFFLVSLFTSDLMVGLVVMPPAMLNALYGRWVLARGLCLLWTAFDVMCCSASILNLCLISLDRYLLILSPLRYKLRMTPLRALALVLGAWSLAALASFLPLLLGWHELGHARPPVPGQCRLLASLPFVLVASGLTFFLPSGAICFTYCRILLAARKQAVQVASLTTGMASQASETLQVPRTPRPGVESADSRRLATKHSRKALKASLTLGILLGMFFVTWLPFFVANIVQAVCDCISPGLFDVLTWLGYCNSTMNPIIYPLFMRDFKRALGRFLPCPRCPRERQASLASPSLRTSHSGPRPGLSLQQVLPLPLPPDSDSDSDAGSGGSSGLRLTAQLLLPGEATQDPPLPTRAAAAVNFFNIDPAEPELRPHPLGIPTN
Put plainly: 5-HT6 receptor binding assay (displacement of [3H]-LSD).
Details: not given
On the procedure:
Displacement of Radioligands Binding to The Following Cloned Human Receptors
Cells from stable clonal cell lines expressing the corresponding receptor (5-HT6, α1-adrenergic, dopamine D2 or histamine H1 receptors) were washed with PBS (w/o Ca^++, Mg^++) and harvested in PBS with 0.02% EDTA. The cells were collected by centrifugation at 500 g for 10 min. at 4° C., washed with PBS and centrifuged (500 g, 10 min. 4° C.). The pellets were stored at −80° C. until use. For membrane preparation, the thawed cell pellet was resuspended in ice-cold sucrose buffer (0.25 M sucrose, 10 mM Hepes (pH 7.4), 1 mM Phenylmethylsulfonyl fluoride (PMSF) in DMSO, 5 μg/ml Pepstatin-A, 3 mM EDTA, 0.025% Bacitracin) and homogenized with a Branson Sonifier W-250 (Settings: Timer 4; Output Control 3; Duty Cycle constant; 2 to 3 cycles). Cell disruption was checked with the aid of a microscope. Remaining unbroken cells were pelleted at 1.000 g for 10 min. at 4° C. The sucrose buffer supernatant was then centrifuged at 60.000 g for 1 h at 4° C. (Beckman Ultrazentrifuge XL 80). The pellet was resuspended in 30 ml ice-cold Tris buffer (20 mM TRIS (pH 7.4), 5 μg/ml Pepstatin A, 0.1 mM PMSF, 3 mM EDTA) by pipetting through a 10 ml serological pipet and centrifuged for 1 h at 4° C. at 60.000 g. A final resuspension was performed in a small volume of ice-cold Tris buffer (see above) by pressing through a serological pipet followed by ultrasonic treatment with a Branson Sonifier W-250 (Settings: Timer 1; Output Control 3; Duty Cycle constant; 1 cycle). Protein concentration was determined (BCA-Kit; Pierce) and aliquots stored at −80° C. or in liquid nitrogen for long-term storage.
All receptor binding experiments were carried out in the corresponding assay buffer in a total volume of 200 μl in the presence of various concentrations of test compound (10^−5 M to 10^−9 M, tenfold serial dilution, duplicate determinations). The assays were terminated by filtration on polyethylenimine (PEI 0.1% or 0.3%) presoaked Packard Unifilter Plates (GF/C or GF/B) with a Tomtec Machin U 96 well-plate harvester. After the plates had been dried for 2 h at 55° C. in a drying chamber scintillation cocktail (BetaPlate Scint; PerkinElmer) was added. Radioactivity was measured in a Microbeta Trilux two hours after the addition of the scintillation mixture. Data derived from liquid scintillation counting were analysed by iterative non-linear regression analysis with the use of the Statistical Analysis System (SAS): a program similar to “LIGAND” as described by Munson and Rodbard (Analytical Biochemistry 107, 220-239 (1980).
HEK293 cells stably expressing the h-5-HT6 receptor (NCBI Reference Sequence XM 001435) were cultured in RPMI1640 medium supplemented with 25 mM HEPES, 10% fetal calf serum and 1-2 mM glutamine. The membrane preparation was performed as described in section 1. […] Non-specific binding was defined with 1 μM methiothepin. The binding reaction was carried out for 3.5 h at room temperature. During the incubation, the plates were shaken on a plate shaker at 100 rpm and terminated by filtration on Packard Unifilter GF/C (0.1% PEI) plates, followed by 2 wash cycles with ice-cold 50 mM Tris-HCl, 5 mM CaCl2.
Data derived from liquid scintillation counting were analyzed by iterative non-linear regression analysis with the use of the Statistical Analysis System (SAS): a program similar to “LIGAND” as described by Munson and Rodbard (Anal. Biochem. 1980, 107, 220-239). Fitting was performed according to formulae described by Feldman (Anal. Biochem. 1972, 48, 317-338). IC50, nH and Ki values were expressed as geometrical mean.
With `COc1ccc(S(=O)(=O)c2cccc(OC(F)F)c2)cc1N1CCNCC1` [Example 47, 1-[5-(3-Difluoromethoxy-benzenesulfonyl)-2-methoxy-phenyl]-piperazine hydrochloride], the Ki was < 10 nM.

The test is the same for the next values; noted with them: membranes of HEK293 cells expressing h-5-HT6 receptor, 1 nM [3H]-LSD; read-out: Ki (5HT6).
As for `CCCN(c1ccccc1OC(F)F)S(=O)(=O)c1ccc(OC)c(N2CCNCC2)c1` [Example 36, N-(2-Difluoromethoxy-phenyl)-4-methoxy-3-piperazin-1-yl-N-propyl-benzenesulfonamide hydrochloride], the Ki was < 10 nM.
Same read-out and setting: the same measure for `COc1ccc(S(=O)(=O)Nc2ccccc2OC(F)F)cc1N1CCN(C)CC1` [Example 37, N-(2-Difluoromethoxy-phenyl)-4-methoxy-3-(4-methyl-piperazin-1-yl)-benzenesulfonamide hydrochloride]: < 10 nM.
Turning to `COc1ccc(NS(=O)(=O)c2ccc(OC)c(N3CCN(C)CC3)c2)cc1OC(F)F` [Example 38, N-(3-Difluoromethoxy-4-methoxy-phenyl)-4-methoxy-3-(4-methyl-piperazin-1-yl)-benzenesulfonamide hydrochloride], the inhibition constant (Ki) is < 10 nM.
The same measure, in the same setting: then `Cc1ccc(S(=O)(=O)N(c2ccccc2OC(F)F)C(C)C)cc1N1CCNCC1` [Example 39, N-(2-Difluoromethoxy-phenyl)-N-isopropyl-4-methyl-3-piperazin-1-yl-benzenesulfonamide hydrochloride], with < 500 nM.
For the compound `COc1ccc(S(=O)(=O)Nc2cccc3c2OC(F)(F)O3)cc1N1CCNCC1` [Example 40, N-(2,2-Difluoro-benzo[1,3]dioxol-4-yl)-4-methoxy-3-piperazin-1-yl-benzenesulfonamide hydrochloride], the Ki is < 50 nM.
Same read-out and setting: the same measure for `O=S(=O)(Nc1ccccc1OC(F)F)c1cccc(N2CCNCC2)c1` [Example 41, N-(2-Difluoromethoxy-phenyl)-3-piperazin-1-yl-benzenesulfonamide hydrochloride]: < 10 nM.
The same measure, in the same setting: then `CN1CCN(c2cccc(S(=O)(=O)Nc3ccccc3OC(F)F)c2)CC1` [Example 42, N-(2-Difluoromethoxy-phenyl)-3-(4-methyl-piperazin-1-yl)-benzenesulfonamide hydrochloride], with < 10 nM; and `CN(c1ccccc1OC(F)F)S(=O)(=O)c1cccc(N2CCNCC2)c1` [Example 43, N-(2-Difluoromethoxy-phenyl)-N-methyl-3-piperazin-1-yl-benzenesulfonamide hydrochloride], with < 500 nM.
Same read-out and setting: then `O=S(=O)(c1cccc(OC(F)F)c1)c1cccc(N2CCNCC2)c1` [Example 45, 1-[3-(3-Difluoromethoxy-benzenesulfonyl)-phenyl]-piperazine hydrochloride], with < 10 nM; and `CN1CCN(c2cccc(S(=O)(=O)c3cccc(OC(F)F)c3)c2)CC1` [Example 46, 1-[3-(3-Difluoromethoxy-benzenesulfonyl)-phenyl]-4-methyl-piperazine hydrochloride], with < 10 nM; and `COc1ccc(S(=O)(=O)c2cccc(OC(F)F)c2)cc1N1CCN(C)CC1` [Example 48, 1-[5-(3-Difluoromethoxy-benzenesulfonyl)-2-methoxy-phenyl]-4-methyl-piperazine hydrochloride], with < 10 nM.
With `COc1ccc(S(=O)(=O)c2ccc(OC)c(N3CCNCC3)c2)cc1OC(F)F` [Example 49, 1-[5-(3-Difluoromethoxy-4-methoxy-benzenesulfonyl)-2-methoxy-phenyl]-piperazine hydrochloride], the Ki is < 10 nM.
Still for that read-out and setting: the same measure for `COc1ccc(S(=O)(=O)Nc2ccc(OC(F)F)c(OC(F)F)c2)cc1N1CCN(C)CC1` [Example 51, N-(3,4-Bis-difluoromethoxy-phenyl)-4-methoxy-3-(4-methyl-piperazin-1-yl)-benzenesulfonamide hydrochloride]: < 10 nM.
On the same count and under the same terms, the same measure for `Cc1ccc(S(=O)(=O)Nc2ccc(OC(F)F)c(OC(F)F)c2)cc1N1CCNCC1` [Example 52, N-(3,4-Bis-difluoromethoxy-phenyl)-4-methyl-3-piperazin-1-yl-benzenesulfonamide hydrochloride]: < 50 nM.
The same measure, in the same setting: the same measure for `COc1ccc(S(=O)(=O)Nc2cc(Cl)ccc2OC(F)F)cc1N1CCN(C)CC1` [Example 53, N-(5-Chloro-2-difluoromethoxy-phenyl)-4-methoxy-3-(4-methyl-piperazin-1-yl)-benzenesulfonamide hydrochloride]: < 10 nM.
Consider `CCc1ccc(S(=O)(=O)Nc2cc(C)ccc2OC(F)F)cc1N1CCN(C)CC1` [Example 54, N-(2-Difluoromethoxy-5-methyl-phenyl)-4-ethyl-3-(4-methyl-piperazin-1-yl)-benzenesulfonamide], for which the inhibitory constant (Ki) is < 10 nM.
Same read-out and setting: then `COc1ccc(S(=O)(=O)Nc2cc(OC(F)F)ccc2C)cc1N1CCN(C)CC1` [Example 55, N-(5-Difluoromethoxy-2-methyl-phenyl)-4-methoxy-3-(4-methyl-piperazin-1-yl)-benzenesulfonamide hydrochloride], with < 10 nM; and `Cc1ccc(S(=O)(=O)Nc2cc(Cl)ccc2OC(F)F)cc1N1CCN(C)CC1` [Example 56, N-(5-Chloro-2-difluoromethoxy-phenyl)-4-methyl-3-(4-methyl-piperazin-1-yl)-benzenesulfonamide hydrochloride], with < 50 nM.
With `COc1ccc(S(=O)(=O)Nc2cc(Cl)ccc2OC(F)F)cc1N1CCNCC1` [Example 57, N-(5-Chloro-2-difluoromethoxy-phenyl)-4-methoxy-3-piperazin-1-yl-benzenesulfonamide hydrochloride], the Ki is < 10 nM.
On to `Cc1ccc(OC(F)F)cc1NS(=O)(=O)c1ccc(C)c(N2CCNCC2)c1` [Example 58, N-(5-Difluoromethoxy-2-methyl-phenyl)-4-methyl-3-piperazin-1-yl-benzenesulfonamide hydrochloride], for which the Ki is < 10 nM.
The same measure, in the same setting: then `COc1ccc(S(=O)(=O)Nc2cc(OC(F)F)ccc2C)cc1N1CCNCC1` [Example 59, N-(5-Difluoromethoxy-2-methyl-phenyl)-4-methoxy-3-piperazin-1-yl-benzenesulfonamide hydrochloride], with < 10 nM.
The same measure, in the same setting: then `COc1ccc(S(=O)(=O)Nc2ccc(OC(F)F)c(OC(F)F)c2)cc1N1CCNCC1` [Example 60, N-(3,4-Bis-difluoromethoxy-phenyl)-4-methoxy-3-piperazin-1-yl-benzenesulfonamide hydrochloride], with < 10 nM; and `CCc1ccc(S(=O)(=O)Nc2cc(Cl)ccc2OC(F)F)cc1N1CCNCC1` [Example 61, N-(5-Chloro-2-difluoromethoxy-phenyl)-4-ethyl-3-piperazin-1-yl-benzenesulfonamide hydrochloride], with < 10 nM; and `CCc1ccc(S(=O)(=O)Nc2ccc(C)cc2OC(F)F)cc1N1CCNCC1` [Example 62, N-(2-Difluoromethoxy-4-methyl-phenyl)-4-ethyl-3-piperazin-1-yl-benzenesulfonamide hydrochloride], with < 10 nM.
Same read-out and setting: then `Cc1ccc(OC(F)F)c(NS(=O)(=O)c2ccc(C)c(N3CCN[C@H](C)C3)c2)c1` [Example 63, N-(2-Difluoromethoxy-5-methyl-phenyl)-4-methyl-3-((R)-3-methyl-piperazin-1-yl)-benzenesulfonamide hydrochloride], with < 10 nM; and `Cc1ccc(OC(F)F)c(NS(=O)(=O)c2ccc(C)c(N3CCN[C@@H](C)C3)c2)c1` [Example 64, N-(2-Difluoromethoxy-5-methyl-phenyl)-4-methyl-3-((S)-3-methyl-piperazin-1-yl)-benzenesulfonamide hydrochloride], with < 10 nM.
